Where two headings read alike, the source gives them in different places.
Experiments:
[1] = system: KARPAS422 human B cell lymphoma cell; assay: Cell proliferation, KARPAS422, 7 day treatment (WST-8); type: cell-based
Summary of the method: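 KARPAS422 cells seeded at 2 000-3 000 cells/well and exposed to serially diluted compounds for 7 days at 37 °C, 5% CO2. Growth measured by WST-8 (1-4 h, absorbance 450 nm). Readings normalized to DMSO-treated cells; IC50 from nonlinear regression.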

EED (1-441)-His protein = molecular target: T1, EED (1-441)-His protein (Homo sapiens, UniProt O75530); assay: EED-H3K27Me3 peptide competition binding assay by AlphaScreen
T1 construct: 20 nM EED (1-441)-His protein
Description: “N/A” stands for “not assessed”.
EED-H3K27Me3 peptide competition binding assay by AlphaScreen (α-screen)
2.5 μl of solutions containing 20 nM biotin-H3K27Me3 (19-33) peptide in the buffer (25 mM HEPES, pH 8, 0.02% Tween-20, 0.5% BSA) were added to the wells and then incubated with compound for 30 min. […] Then 10 μl of the detection beads mix was added to the plate and incubated in the dark at RT for 1 h. The final concentration of donor and acceptor beads was 10 μg/ml for each. […] The data were then fit to a dose response equation to get the IC50 values.

Pfeiffer cell line = assay: Anti-proliferative activity, Pfeiffer cell line, 7 day treatment; type: cell-based; settings: Homo sapiens, 168 h; anti-proliferative IC50 class, Pfeiffer cell line, 7 day treatment; read-out: Pfeiffer Cell line
Summary of the method: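 Cells seeded at 2 000-3 000 per well were treated with serially diluted compounds for 7 days at 37° C, 5% CO2. Growth was measured by WST-8 assay read at 450 nm after 1-4 h reagent incubation. Readings were normalized to DMSO-treated cells and IC50 values derived by nonlinear regression.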

[2] = Homo sapiens, KARPAS-422, 168 h, anti-proliferative IC50 class, Karpas 422 cell line, 7 day treatment, read-out: Karpas Cell line
[3] = EED Alpha screen binding assay, IC50 class, read-out: Alpha screen
[4] = anti-proliferative IC50, Karpas 422 cell line, 7 day treatment, read-out: Karpas Cell line
[5] = EED Alpha screen binding assay, read-out: Alpha screen
[6] = Homo sapiens, KARPAS-422, 168 h, read-out: Karpas Cell line (nM)
[7] = Homo sapiens, KARPAS-422, 168 h, anti-proliferative IC50, Karpas 422 cell line, 7 day treatment, read-out: Karpas Cell line

T1 sequence (O75530 whole entry): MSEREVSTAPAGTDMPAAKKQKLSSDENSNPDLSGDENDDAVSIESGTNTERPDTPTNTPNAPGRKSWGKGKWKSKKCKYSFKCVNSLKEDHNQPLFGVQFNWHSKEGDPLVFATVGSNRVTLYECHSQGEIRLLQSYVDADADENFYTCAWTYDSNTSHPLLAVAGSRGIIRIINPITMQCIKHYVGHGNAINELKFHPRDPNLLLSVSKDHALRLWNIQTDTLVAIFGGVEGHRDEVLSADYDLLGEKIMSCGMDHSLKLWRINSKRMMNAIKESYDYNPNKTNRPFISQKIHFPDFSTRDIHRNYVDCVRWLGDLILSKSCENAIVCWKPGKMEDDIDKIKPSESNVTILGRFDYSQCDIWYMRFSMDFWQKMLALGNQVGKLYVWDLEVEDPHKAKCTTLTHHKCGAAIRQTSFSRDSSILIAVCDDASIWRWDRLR

Compound	IC50 (EED (1-441)-His protein; [5]) [nM]	IC50 [1, 6] [nM]	IC50 [1, 7] [nM]	further results
Cc1ccc2c(n1)CN(CC(C)(F)F)C(=O)c1ncn3c(NCc4c(F)ccc5c4CCO5)ncc-2c13 [E 7, 4-(2,2-difluoropropyl)-12-(((5-fluoro-2,3-dihydrobenzofuran-4-yl)methyl)amino)-7-methyl-4,5-dihydro-3H-2,4,6,11,12a-pentaazabenzo[4,5]cycloocta[1,2,3-cd]inden-3-one]				IC50 [1, 2]: < 10 nM; IC50 (EED (1-441)-His protein; [3]): < 10 nM; IC50 (Pfeiffer cell line): < 10 nM
[2H]C1Oc2ccc(F)c(C([2H])([2H])Nc3ncc4c5c(ncn35)C(=O)N(CC(F)(F)F)Cc3nc(C)ccc3-4)c2C1[2H] (stereo not drawn) [E 22, 12-(((5-fluoro-2,3-dihydrobenzofuran-4-yl-2,3-d2)methyl-d2)amino)-7-methyl-4-(2,2,2-trifluoroethyl)-4,5-dihydro-3H-2,4,6,11,12a-pentaazabenzo[4,5]cycloocta[1,2,3-cd]inden-3-one]				IC50 [1, 2]: < 10 nM; IC50 (EED (1-441)-His protein; [3]): < 10 nM; IC50 (Pfeiffer cell line): < 10 nM
4-(2,2-difluoroethyl)-7-fluoro-12-(((5-fluoro-2,3- dihydrobenzofuran-4-yl)methyl)amino)-4,5-dihydro- 3H-2,4,11,12a-tetraazabenzo[4,5]cycloocta[1,2,3- cd]inden-3-one [compound 80]	1.61			IC50 [1, 4]: 2.42 nM
Cc1ccc(-c2cnc(NCc3c(F)ccc4c3CCO4)n3cnc(S(C)(=O)=O)c23)c(C)n1 [compound 108, 8-(2,6-dimethylpyridin-3-yl)-N-((5-fluoro-2,3-dihydrobenzofuran-4-yl)methyl)-1-(methylsulfonyl)imidazo[1,5-c]pyrimidin-5-amine]	0.421	6.89		
CCP(=O)(CC)c1ncn2c(NCc3c(F)ccc4c3CCO4)ncc(-c3ccc(C(F)(F)F)cc3)c12 [compound 121, diethyl(5-(((5-fluoro-2,3-dihydrobenzofuran-4-yl)methyl)amino)-8-(4-(trifluoromethyl)phenyl)imidazo[1,5-c]pyrimidin-1-yl)phosphine oxide]	0.31		> 100	
CP(C)(=O)c1ncn2c(NCc3c(F)ccc4c3CCO4)ncc(-c3ccc(C(F)(F)F)nc3)c12 [compound 119, (5-(((5-fluoro-2,3-dihydrobenzofuran-4-yl)methyl)amino)-8-(6-(trifluoromethyl)pyridin-3-yl)imidazo[1,5-c]pyrimidin-1-yl)dimethylphosphine oxide]	0.2		27.9	
Cc1ccc(-c2cnc(NCc3c(F)ccc4c3CCO4)n3cnc(C(F)(F)F)c23)c(C)n1 [compound 115, 8-(2,6-dimethylpyridin-3-yl)-N-((5-fluoro-2,3-dihydrobenzofuran-4-yl)methyl)-1-(trifluoromethyl)imidazo[1,5-c]pyrimidin-5-amine]	2.35		50.1	
CP(C)(=O)c1ncn2c(NCc3c(F)ccc4c3CCO4)ncc(-c3ccc(C(F)F)nc3)c12 [compound 117, (8-(6-(difluoromethyl)pyridin-3-yl)-5-(((5-fluoro-2,3-dihydrobenzofuran-4-yl)methyl)amino)imidazo[1,5-c]pyrimidin-1-yl)dimethylphosphine oxide]	0.19		19.5	
Cc1nc(C(F)(F)F)ccc1-c1cnc(NCc2c(F)ccc3c2CCO3)n2cnc(S(C)(=O)=O)c12 [compound 109, N-((5-fluoro-2,3-dihydrobenzofuran-4-yl)methyl)-8-(2-methyl-6-(trifluoromethyl)pyridin-3-yl)-1-(methylsulfonyl)imidazo[1,5-c]pyrimidin-5-amine]	0.53	10.9		
Fc1ccc2c(c1CNc1ncc(-c3ccc(C(F)(F)F)cc3)c3c(C(F)(F)F)ncn13)CCO2 [compound 113, N-((5-fluoro-2,3-dihydrobenzofuran-4-yl)methyl)-1-(trifluoromethyl)-8-(4-(trifluoromethyl)phenyl)imidazo[1,5-c]pyrimidin-5-amine]	0.98		> 100	
Fc1ccc(-c2cnc(NCc3c(F)ccc4c3CCO4)n3cnc(C(F)(F)F)c23)cc1 [compound 114, N-((5-fluoro-2,3-dihydrobenzofuran-4-yl)methyl)-8-(4-fluorophenyl)-1-(trifluoromethyl)imidazo[1,5-c]pyrimidin-5-amine]	1.48		> 100	
CCP(=O)(CC)c1ncn2c(NCc3c(F)ccc4c3CCO4)ncc(-c3ccc(F)cc3)c12 [compound 124, diethyl(5-(((5-fluoro-2,3-dihydrobenzofuran-4-yl)methyl)amino)-8-(4-fluorophenyl)imidazo[1,5-c]pyrimidin-1-yl)phosphine oxide]	8.04		72	
CS(=O)(=O)c1ncn2c(NCc3c(F)ccc4c3CCO4)ncc(-c3ccc(C4CC4)nc3)c12 [compound 111, 8-(6-cyclopropylpyridin-3-yl)-N-((5-fluoro-2,3-dihydrobenzofuran-4-yl)methyl)-1-(methylsulfonyl)imidazo[1,5-c]pyrimidin-5-amine]	0.34	1.42		
7-fluoro-12-(((5-fluoro-2,3-dihydrobenzofuran-4- yl)methyl)amino)-4-(1-methylpiperidin-4-yl)-4,5- dihydro-3H-2,4,11,12a- tetraazabenzo[4,5]cycloocta[1,2,3-cd]inden-3-one [compound 75]	1.72			IC50 [1, 4]: 11.1 nM
Fc1ccc2c(c1CNc1ncc(-c3ccc(C(F)(F)F)nc3)c3c(C(F)(F)F)ncn13)CCO2 [compound 116, N-((5-fluoro-2,3-dihydrobenzofuran-4-yl)methyl)-1-(trifluoromethyl)-8-(6-(trifluoromethyl)pyridin-3-yl)imidazo[1,5-c]pyrimidin-5-amine]	1.98		> 100	
CS(=O)(=O)c1ncn2c(NCc3c(F)ccc4c3CCO4)ncc(-c3ccc(F)cc3)c12 [compound 104, N-((5-fluoro-2,3-dihydrobenzofuran-4-yl)methyl)-8-(4-fluorophenyl)-1 (methylsulfonyl)imidazo[1,5-c]pyrimidin-5-amine]	0.59	8.1		
Cc1cc(S(C)(=O)=O)ccc1-c1cnc(NCc2c(F)ccc3c2CCO3)n2cnc(S(C)(=O)=O)c12 [compound 110, N-((5-fluoro-2,3-dihydrobenzofuran-4-yl)methyl)-8-(2-methyl-4-(methylsulfonyl)phenyl)-1-(methylsulfonyl)imidazo[1,5-c]pyrimidin-5-amine]	0.47	3.93		
CS(=O)(=O)c1ncn2c(NCc3c(F)ccc4c3CCO4)ncc(-c3ccc(C(F)F)nc3)c12 [compound 107, 8-(6-(difluoromethyl)pyridin-3-yl)-N-((5-fluoro-2,3-dihydrobenzofuran-4-yl)methyl)-1-(methylsulfonyl)imidazo[1,5-c]pyrimidin-5-amine]		2.84		IC50 (EED (1-441)-His protein): 0.215 nM
4-(2,2-difluoropropyl)-7-fluoro-12-(((5-fluoro-2,3- dihydrobenzofuran-4-yl)methyl)amino)-4,5-dihydro- 3H-2,4,11,12a-tetraazabenzo[4,5]cycloocta[1,2,3- cd]inden-3-one [compound 76]	0.97			IC50 [1, 4]: 14.5 nM
CS(=O)(=O)c1ccc(-c2cnc(NCc3c(F)ccc4c3CCO4)n3cnc(C(F)(F)F)c23)cc1 [compound 112, N-((5-fluoro-2,3-dihydrobenzofuran-4-yl)methyl)-8-(4-(methylsulfonyl)phenyl)-1-(trifluoromethyl)imidazo[1,5-c]pyrimidin-5-amine]	0.83		20.3	

Reference: US12145944B2, “Imidazopyrimidines as EED inhibitors and the use thereof” (THE REGENTS OF THE UNIVERSITY OF MICHIGAN, priority 2019, dated 2024)
